Where two headings read alike, the source gives them in different places. Positions of bridges follow the written chain, without caps; N, C: chain ends. Residues, ends and D or L forms follow the SMILES beside them.
Experiments:
MRGPRX2 [1] = biological target: T1, MRGPRX2 (Homo sapiens, UniProt Q96LB1); assay: TRUPATH Gαi1 dissociation assay, LN229 cells expressing MRGPRX2; assay type: cell-based; parameters: expressed in transfected cells; host or cells: LN229 human glioblastoma cells; plasmid pLXSN-MRGPRX2 (Addgene #213960); details: read-out: EC50 of agonist, Gαi1 dissociation
T1 sequence (Q96LB1 1-330): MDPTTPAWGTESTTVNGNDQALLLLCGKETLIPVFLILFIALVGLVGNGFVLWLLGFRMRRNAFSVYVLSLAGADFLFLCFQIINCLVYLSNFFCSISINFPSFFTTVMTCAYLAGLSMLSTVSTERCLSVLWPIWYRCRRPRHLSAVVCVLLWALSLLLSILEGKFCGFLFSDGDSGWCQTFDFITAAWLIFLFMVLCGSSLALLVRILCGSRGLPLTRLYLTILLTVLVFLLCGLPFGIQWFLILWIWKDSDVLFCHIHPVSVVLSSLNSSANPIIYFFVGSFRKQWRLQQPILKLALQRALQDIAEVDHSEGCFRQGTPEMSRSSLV
Method: (§1) Fig. 3 Biological characterization of PSB-172656. a Selectivity of PSB-172656 (100 nM) for MRGPRX2 over MRGPRX1, MRGPRX3, and MRGPRX4 measured in β-arrestin assays utilizing β-arrestin-CHO cells with recombinant expression of the respective receptor. MRGPRX1 was activated by BAM-22P (8.5 µM),[19] MRGPRX2 was activated by CST-14 (1 µM), MRGPRX3 was activated by PSB-20294 (10 µM), MRGPRX4 was activated by PSB-18061 (2.6 µM).[44] Data represent mean values ± SEM of 3-4 biological replicates, performed in duplicates. […] Data are means ± SEM of 3 biological replicates, in duplicates. Statistical significance was determined by one-way ANOVA (Tukey’s multiple comparison) test (ns P > 0.05). […] Data are means ± SEM of 3 biological replicates, performed in duplicates. e Shift assay to determine inhibition type of PSB-172656 versus CST-14. […] Extrapolated data were not used for analysis but only shown for a comprehensive view. f Schild plot for the effect of PSB-172656 on the concentration-response curves for CST-14. […]
(§2) To further investigate PSB-172656 signaling, direct activation of the relevant G protein subunits, Gαq and Gαi1,[32] was studied. This was assessed using G protein dissociation assays and LN229 cells stably overexpressing MRGPRX2 while transiently expressing the investigated G protein (Fig. 3c, d).[47]

MRGPRX2 [2] = biological target: T1, MRGPRX2; assay: β-arrestin recruitment assay (antagonist mode), β-arrestin-CHO cells recombinantly expressing MRGPRX2; assay type: cell-based; parameters: expressed in transfected cells; details: for Ki: versus CST-14 (EC80 1,000 nM, EC50 483 nM), Cheng-Prusoff, read-out: β-Arrestin assay Ki ± SEM
MRGPRX2 [3] = biological target: T1, MRGPRX2; assay: TRUPATH Gαq dissociation assay, LN229 cells expressing MRGPRX2; assay type: cell-based; parameters: expressed in transfected cells; host or cells: LN229 human glioblastoma cells; plasmid pLXSN-MRGPRX2 (Addgene #213960); details: read-out: EC50 of agonist, Gαq dissociation
Method: as §1, §2

MRGPRX2 [4] = biological target: T1, MRGPRX2; assay: Ca2+ mobilization assay, LN229 cells overexpressing MRGPRX2; assay type: cell-based; parameters: expressed in transfected cells; host or cells: LN229 human glioblastoma cells; plasmid pLXSN-MRGPRX2 (Addgene #213960); details: for Ki: versus CST-14 (EC80 800 nM, EC50 452 nM), Cheng-Prusoff, read-out: Ca2+ assay Ki ± SEM
Method: Glioblastoma LN229-MRGPRX2 stably expressing MRGPRX2 (produced by retroviral transfection) were seeded into black sterile 96-well microplates at a density of 5 × 10^4 cells/well in 200 µL of DMEM/F12-Nut Mix medium, supplemented with 10% FCS, 100 U/mL of penicillin 100 µg/mL of streptomycin, and 200 µg/mL of G418 and incubated for 18–22 h.
The next day Fluo-4 AM Solution (1 mM) (Thermo Fisher Scientific) was prepared and used to prepare cell loading dye solution consisting of 4970 µL of Hank’s Buffered Saline Solution (HBSS) buffer, 15 µL of 20% Pluronic-F and 15 µL of 1 mM Fluo-4 AM. Next, the cell medium was removed and exchanged for 40 µL of dye solution per well (final concentration of Fluo-4 AM: 3 µM). The cell plate was incubated for 60 min in the dark at room temperature, then the dye solution was removed and replaced by 189 µL HBSS. Subsequently, 1 µL of antagonist diluted in DMSO was added and incubated for 30 min at room temperature and in the dark (final DMSO concentration 0.5%, v/v). CST-14 or another agonist prepared in HBSS as well as carbachol (final concentration 100 µM) were pipetted (10 µL) using a FlexStation® 3 Multi-Mode Microplate Reader. For the determination of baseline fluorescence, HBSS buffer containing solvent of the investigated compound was used. Fluorescence was measured for 120 intervals of 1 s (number of flashes: 10) at a wavelength of 525 nm (excitation 485 nm) using the SoftMax® Pro5.1 Microplate Data Acquisition & Analysis Software. Three independent experiments were performed in duplicates. Measurements are provided in relative fluorescence units and normalized to the maximal effect of CST-14.

mouse MRGPRB2 = biological target: T2, mouse MRGPRB2 (Mus musculus, UniProt Q3KNA1); parameters: method as in PMID 38184723; details: cited from earlier work
T2 construct: expressed in transfected cells; host or cells: 1321N1 astrocytoma cells; plasmid pLVX-IRES-MRGPRB2-mCherry (Addgene #213961)
T2 sequence (Q3KNA1 1-338): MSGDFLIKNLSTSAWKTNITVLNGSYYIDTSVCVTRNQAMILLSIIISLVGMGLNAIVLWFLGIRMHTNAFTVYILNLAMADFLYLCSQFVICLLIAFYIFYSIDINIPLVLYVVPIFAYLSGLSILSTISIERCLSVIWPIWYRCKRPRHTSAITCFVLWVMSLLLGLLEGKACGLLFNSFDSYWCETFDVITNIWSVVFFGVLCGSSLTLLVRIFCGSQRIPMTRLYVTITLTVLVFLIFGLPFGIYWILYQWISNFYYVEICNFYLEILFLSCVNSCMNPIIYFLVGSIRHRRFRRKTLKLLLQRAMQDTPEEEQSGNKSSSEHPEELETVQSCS

MRGPRX2 [5] = biological target: T1, MRGPRX2; parameters: expressed in transfected cells; host or cells: LN229 human glioblastoma cells; plasmid pLXSN-MRGPRX2 (Addgene #213960); method as in earlier work; details: read-out: EC50 as MRGPRX2 agonist; cited from earlier work
MRGPRX2 [6] = biological target: T1, MRGPRX2; assay: β-arrestin assay (agonist mode), β-arrestin CHO cells recombinantly expressing MRGPRX2; assay type: cell-based; details: for EC50: agonist test, read-out: β-Arrestin assay EC50 ± SEM; for β-Arrestin assay % activation: normalized to CST-14 (EC80 5,000 nM)
Excerpt: Eurofins DiscoverX (Fremont, CA, USA) provided engineered Chinese hamster ovary (CHO) cells stably expressing β-arrestin-2 fused to a large β-galactosidase fragment (enzyme acceptor, EA). These CHO-K1-β-arrestin-2 cells were commercially available (93-0164). CHO-K1-β-arrestin-2 cells that additionally expressed MRGPRX1, -2, or -4 fused to the fragment ProLink™ (PK) were also purchased from the same company (93-0919C2, 93-0309C2, and 3-0541C2A, respectively). CHO cells expressing MRGPRX3 were generated as previously […].[31] The cells were grown in F-12 Ham Nutrient Mixture (Life Technologies) supplemented with 10% FBS, 100 U/mL of penicillin, 100 µg/mL of streptomycin (PAN-Biotech), 300 μg/mL of hygromycin B (PAN-Biotech), and 800 μg/mL of gentamicin (PAN-Biotech) at 37 °C and 5% CO2.).
The assays were carried out as previously described.[22] […] After 30 min of incubation at 37 °C and 5% CO2, Cortistatin-14 (CST-14, Bioscience, Bristol, United Kingdom) or another MRGPRX2 agonist that served as a standard agonist was added, and the mixture was incubated for 90 min at 37 °C and 5% CO2. Next, a detection reagent (50 µL, DiscoverX) was added, and the mixture was incubated at room temperature in the dark for 60 min. Chemiluminescence was measured on a Mithras LB 940 plate reader (Berthold Technologies, Bad Wildbad, Germany). The results represent means ± SEM of three to five independent experiments, each in duplicates.
^d β-Arrestin CHO cells recombinantly expressing MRGPRX2
^f Percentage of activation of normalized to CST-14 (EC80 5,000 nM)

[7] = Metabolic stability in human liver microsomes; assay type: in vitro ADME; details: both sexes, human liver microsomes 0.25 mg/ml, compound 1 µM; for half-life at 1 µM: human, liver microsomes, read-out: T1/2 (half-life); for microsomal CLint at 1 µM: read-out: Clint (intrinsic clearance)
[8] = MTT cytotoxicity assay, 1321N1 astrocytoma cells; assay type: cell-based; details: human; for cytotoxicity at 72 h, 10000 nM: up to 10,000 nM, read-out: Cytotoxicity % effect
Method: Potential cytotoxicity of 24 and its similarly potent analogs 27 and 30 was assessed in 3-(4,5-dimethylthiazol-2-yl)-2,5-diphenyl-2H-tetrazolium bromide (MTT) assays performed on human 1321N1 astrocytoma cells (Supplementary Table S3). This cell line was chosen since it is well-established for the screening of cytotoxic drugs, making it a reliable choice for assessing cytotoxicity.[46]
For the experiment, 1321N1 astrocytoma cells were seeded at a density of 1 × 10^5 cells/well in 180 µL of cell medium into transparent 96-well plates, whereby the outer wells only contained buffer (to avoid an edge effect). Cells were incubated for 24 h at 37°C, 5% CO2. Compound dilutions were prepared in DMSO. […] Subsequently, 20 µL of these compound dilutions were added to each well so that astrocytoma cells were incubated with varying concentrations of MRGPRX2 antagonists (0.01 µM–10 µM) at 37° C, 5% CO2. 5-Fluoruracil, a cytostatic drug, served as a positive control. Medium-containing DMSO in the absence of a compound served as a negative control. After 71 h, […] of MTT solution (5 mg/mL, prepared in Millipore water) was added to each well (final concentration 0.5 mg/mL) and cells were incubated again for another hour. Subsequently, the medium was removed, and cells were lyzed by adding 100 µL of DMSO per well. In order to dissolve the produced formazan dye crystals, plates were incubated for 2 min on a rotary shaker (150 rpm). Afterward, the UV absorbance at 570 nm was measured by using SoftMax® Pro5.1 Microplate Data Acquisition & Analysis Software (Molecular Devices, Sunnyvale, CA, USA). The UV absorbance at 690 nm was measured directly afterward to eliminate the background absorbance of residual medium and cell components. The values of the measured UV absorbance at 690 nm were subtracted from the values obtained by the measurement of UV absorbance at 570 nm. Three to four independent experiments were performed, each in triplicate.

EC50 (MRGPRX2 [1]) [nM] | EC80 of agonist, β-arrestin assay (MRGPRX2 [2]) [nM] | EC50 (MRGPRX2 [2]; agonist concentration-response curve, read-out: EC50 of agonist, β-arrestin assay) [nM] | EC50 (MRGPRX2 [2]; without antagonist, read-out: EC50 of CST-14, shift assay) [nM] | EC50 (MRGPRX2 [3]) [nM] | EC80 of agonist, Ca2+ assay (MRGPRX2 [4]) [nM] | EC50 (MRGPRX2 [4]; agonist concentration-response curve) [nM] | EC50 (MRGPRX2 [6]) [nM] | β-Arrestin assay % activation (MRGPRX2 [6]) [%] | Ki (MRGPRX2 [2]) [nM] | MRGPRX2 antagonistic potency in Ca2+ assay, in words (MRGPRX2 [4]; versus CST-14) | Ki (MRGPRX2 [4]) [nM] | half-life at 1 µM [7] [min] | microsomal CLint at 1 µM [7] [µL/min/mg] | fold less potent than 24 (MRGPRX2 [4]) [fold] | Compound | EC80 of agonist at MRGPRB2, Ca2+ assay (mouse MRGPRB2) [nM] | EC50 (MRGPRX2 [5]) [nM] | CC50 at 72 h [8] [nM] | cytotoxicity at 72 h, 10000 nM [8] [%]
113 ± 16 | 1000 | 483 | 283 ± 45 | 499 ± 207 | 800 | 452 ± 49 | – | – | – | – | – | – | – | – | C[C@@H](O)[C@@H]1NC(=O)[C@H](CCCCN)NC(=O)[C@H](Cc2c[nH]c3ccccc23)NC(=O)[C@H](Cc2ccccc2)NC(=O)[C@H](Cc2ccccc2)NC(=O)[C@H](CC(N)=O)NC(=O)[C@H](CCCCN)NC(=O)[C@@H](NC(=O)[C@@H]2CCCN2)CSSC[C@@H](C(=O)N[C@@H](CCCCN)C(=O)O)NC(=O)[C@H](CO)NC(=O)[C@H](CO)NC(=O)[C@H](Cc2ccccc2)NC1=O [CST-14, reference compound] (H-PCKNFFWKTFSSCK-OH; disulfide 2-13; N-terminus and C-terminus assumed) | 2000 | – | – | –
– | – | – | – | – | – | – | – | – | – | – | – | – | – | – | CN(C)[C@@H]1CCN(c2cc(-c3ccccc3)nc3ccnn23)C1 [ZINC-3573] | – | 760 | – | –
– | – | – | – | – | – | – | > 10000 | -3 | 5.89 ± 2.86 | subnanomolar potencies | 0.455 | 14 | 100 | – | CCc1c(C(C)C)[nH]c2nc3cc(F)ccc3n2c1=O [Compound 30, 3-ethyl-8-fluoro-2-isopropylbenzo[4,5]imidazo[1,2-a]pyrimidin-4(1H)-one] | – | – | > 10000 | 30
– | – | – | – | – | – | – | > 10000 | 0 | 28.5 ± 23.9 | – | 6.64 | 10.6 | 131 | 5 | CCc1c(C(C)C)[nH]c2nc3cc(C)c(C)cc3n2c1=O [Compound 27] | – | – | > 10000 | 28
